Results as given in publication PMC3272584 (Bioorganic & medicinal chemistry, 2011).

These compounds were tested on rat neonatal microglia (assay: Short-term microglia cell viability: LDH release). Conditions: short-term cell viability (90 min).

Which “LDH50 (concentration that caused 50% release of the total LDH content of microglia cells)” value does the source give for [C-]#[N+][C@@]1(C)CC[C@H]2[C@H]3[C@@H](C(=C)CC[C@H]31)[C@H](CC(=C)C)C[C@@H]2C [Compound 1, 7-isocyano-11(20)-15(16)-amphilectadiene] here?
The value was greater than 10 µM.

[C-]#[N+]C(C)(C)C[C@@H]1C[C@H](C)[C@H]2CC[C@H](C)[C@@]3([N+]#[C-])CCC(=C)[C@@H]1[C@H]23 [Compound 2, (–)-8,15-diisocyano-11(20)-amphilectene] was tested. Which “LDH50 (concentration that caused 50% release of the total LDH content of microglia cells)” value did it give?
The value was greater than 10 µM.

Which “LDH50 (concentration that caused 50% release of the total LDH content of microglia cells)” value does the source give for [C-]#[N+][C@@]12CCC(=C)[C@H]3[C@H](CC(C)(C)NC=O)C[C@H](C)[C@@H](CC[C@@H]1C)[C@@H]32 [Compound 4, 8-isocyano-11(20)-ene-15-amphilectaformamide] here?
Its value is greater than 10 µM.

With [C-]#[N+][C@@]12CCC(=C)[C@H]3[C@H](CC(C)(C)NC(=O)CN4CCC4=O)C[C@H](C)[C@@H](CC[C@@H]1C)[C@@H]32 [Compound 5, monamphilectine A] as the compound, how does the “LDH50 (concentration that caused 50% release of the total LDH content of microglia cells)” value read?
The value was greater than 10 µM.

Which “LDH50 (concentration that caused 50% release of the total LDH content of microglia cells)” value does the source give for [C-]#[N+]C(C)(C)C[C@@H]1C[C@H](C)[C@H]2CC[C@H](C)[C@@]3([N+]#[C-])CCC(=O)[C@@H]1[C@H]23 [Compound 6, 8,15-diisocyano-11-amphilectone] here?
The value was greater than 10 µM.
